For the data set, the system named is Streptomyces toxytricini. Nature of the data set: toxic level of linoleic acid in liquid culture of Streptomyces toxytricini. Type of data set: cell-based. An excerpt: With Streptomyces toxytricini, the toxic level of linoleic acid in liquid culture is about 2,300-3,000 ppm. […] For this reason, the pH of lipstatin fermentation was controlled so that the linoleic acid being liberated from fats and oils was enough for the lipstatin biosynthesis but not raised to a toxic level.

Turning to `CCCCC/C=C\C/C=C\CCCCCCCC(=O)O` [linoleic acid], the “toxic level of linoleic acid in liquid culture” value is 2,300-3,000 ppm.
